Measurements: US8501946B2 (Glaxo Group Limited, priority 2009, dated 2013)

These molecules were tested against T1, human recombinant P2X7 receptors (Homo sapiens, UniProt Q99572) (assay: Ethidium Accumulation Assay 1 (HEK293 cells, ATP-induced ethidium uptake)). Details: HEK293 cells expressing human P2X7; 1 mM ATP; sometimes mean of more than one measurement; read-out: Assay 1 (antagonist pIC50 for blocking ATP responses) (converted).
T1 construct: expressed in transfected cells
T1 sequence (Q99572 1-595): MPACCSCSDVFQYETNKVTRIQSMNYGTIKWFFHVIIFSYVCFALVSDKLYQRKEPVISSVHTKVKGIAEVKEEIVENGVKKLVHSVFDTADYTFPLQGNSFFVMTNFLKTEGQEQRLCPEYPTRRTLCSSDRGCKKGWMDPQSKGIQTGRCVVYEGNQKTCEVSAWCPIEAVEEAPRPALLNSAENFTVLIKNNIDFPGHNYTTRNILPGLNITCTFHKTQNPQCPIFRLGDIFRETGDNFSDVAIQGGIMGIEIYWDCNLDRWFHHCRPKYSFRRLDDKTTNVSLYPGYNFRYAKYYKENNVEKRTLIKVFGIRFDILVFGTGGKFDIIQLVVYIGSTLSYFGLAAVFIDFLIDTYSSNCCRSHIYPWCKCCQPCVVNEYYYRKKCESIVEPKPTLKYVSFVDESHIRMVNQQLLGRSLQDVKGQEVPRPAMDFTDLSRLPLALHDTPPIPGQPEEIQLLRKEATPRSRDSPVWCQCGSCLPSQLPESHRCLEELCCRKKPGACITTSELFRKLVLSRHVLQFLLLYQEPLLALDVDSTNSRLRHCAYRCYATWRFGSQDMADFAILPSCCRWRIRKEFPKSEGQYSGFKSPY
Assay type: cell-based
Method: Eithidium Accumulation Assay 1
Studies were performed using NaCl assay buffer of the following composition: 140 mM NaCl, 10 mM HEPES [4-(2-hydroxyethyl)-1-piperazine-1-ethanesulfonic acid], 5 mM N-methyl-D-glucamine, 5.6 mM KCl, 10 mM D-glucose, 0.5 mM CaCl2 (pH 7.4).
Human Embryonic Kidney (HEK) 293 cells, stably expressing human recombinant P2X7 receptors, were grown in poly-D-lysine pretreated 96 well plates for 18-24 hours.
The cells were washed twice with 350 μl of the assay buffer, before addition of 50 μl of the assay buffer containing the putative P2X7 receptor antagonist compound. (A small amount of dimethyl sulfoxide, for initially dissolving the compound, is optionally used and present in this 50 μl test compound sample.) The cells were then incubated at room temperature (19-21° C.) for 30 min before addition of ATP and ethidium (100 μM final assay concentration). The ATP concentration was chosen to be close to the EC80 for the receptor type and was 1 mM for studies on the human P2X7 receptor. Incubations were continued for 8 or 16 min and were terminated by addition of 25 μl of 1.3M sucrose containing 4 mM of the P2X7 receptor antagonist Reactive Black 5 (Aldrich). […] Antagonist pIC50 values for blocking ATP responses were determined using iterative curve fitting techniques.

`O=C(c1cccc(C(F)(F)F)c1Cl)N1CCn2c(nnc2C(F)(F)F)C1` [Example 2, 7-{[2-chloro-3-(trifluoromethyl)phenyl]carbonyl}-3-(trifluoromethyl)-5,6,7,8-tetrahydro[1,2,4]triazolo [4,3-a]pyrazine] and `CC(C)(C)c1nnc2n1CCN(C(=O)c1cccc(C(F)(F)F)c1Cl)C2` [Example 25, 7-{[2-chloro-3-(trifluoromethyl)phenyl]carbonyl}-3-(1,1-dimethylethyl)-5,6,7,8-tetrahydro[1,2,4]triazolo [4,3-a]pyrazine] cannot be ordered by IC50: under 100 nM for the first, under 501 nM for the second.

`O=C(c1cccc(Cl)c1Cl)N1CCn2c(nnc2-c2ccc(F)cc2F)C1` [Example 98] and `O=C(c1ccc(Cl)cc1Cl)N1CCn2c(nnc2-c2ccc(F)cc2F)C1` [Example 101, 7-[(2,4-dichlorophenyl)carbonyl]-3-(2,4-difluorophenyl)-5,6,7,8-tetrahydro[1,2,4]triazolo [4,3-a]pyrazine] cannot be ordered by IC50: under 100 nM for the first, under 100 nM for the second.

`O=C(c1ccccc1Cl)N1CCn2c(nnc2-c2ccco2)C1` [Example 117, 7-[(2-chlorophenyl)carbonyl]-3-(2-furanyl)-5,6,7,8-tetrahydro[1,2,4]triazolo[4,3-a]pyrazine] and `O=C(c1ccc(F)cc1Cl)N1CCn2c(nnc2-c2ccccc2O)C1` [Example 128, 2-{7-[(2-chloro-4-fluorophenyl)carbonyl]-5,6,7,8-tetrahydro[1,2,4]triazolo[4,3-a]pyrazin-3-yl}phenol] cannot be ordered by IC50: under 10 nM for the first, under 501 nM for the second.

`O=C(c1ccc(Cl)c(C(F)(F)F)c1)N1CCn2c(nnc2-c2cnccn2)C1` [Example 104, 7-{[4-chloro-3-(trifluoromethyl)phenyl]carbonyl}-3-(2-pyrazinyl)-5,6,7,8-tetrahydro[1,2,4]triazolo [4,3-a]pyrazine] and `Cc1cc(F)ccc1C(=O)N1CCn2c(nnc2-c2cnccn2)C1` [Example 107, 7-[(4-fluoro-2-methylphenyl)carbonyl]-3-(2-pyrazinyl)-5,6,7,8-tetrahydro[1,2,4]triazolo [4,3-a]pyrazine] cannot be ordered by IC50: under 100 nM for the first, under 100 nM for the second.

`O=C(c1ccc(F)cc1Cl)N1CCn2c(nnc2-c2cccc3cccnc23)C1` [Example 129, 8-{7-[(2-chloro-4-fluorophenyl)carbonyl]-5,6,7,8-tetrahydro[1,2,4]triazolo[4,3-a]pyrazin-3-yl}quinoline] and `O=C(c1ccc(F)cc1Cl)N1CCn2c(nnc2-c2ccccn2)C1` [Example 37, 7-[(2-chloro-4-fluorophenyl)carbonyl]-3-(2-pyridinyl)-5,6,7,8-tetrahydro[1,2,4]triazolo [4,3-a]pyrazine] cannot be ordered by IC50: under 501 nM for the first, under 10 nM for the second.

`Cn1cccc1-c1nnc2n1CCN(C(=O)c1ccc(F)cc1Cl)C2` [Example 82, -[(2-chloro-4-fluorophenyl)carbonyl]-3-(1-methyl-1H-pyrrol-2-yl)-5,6,7,8-tetrahydro[1,2,4]triazolo [4,3-a]pyrazine] and `Cn1ccc(-c2nnc3n2CCN(C(=O)c2ccc(F)cc2Cl)C3)n1` [Example 72, 7-[(2-chloro-4-fluorophenyl)carbonyl]-3-(1-methyl-1H-pyrazol-3-yl)-5,6,7,8-tetrahydro[1,2,4]triazolo [4,3-a]pyrazine] cannot be ordered by IC50: under 100 nM for the first, under 100 nM for the second.

`O=C(c1cccc(Cl)c1Cl)N1CCn2c(nnc2-c2cccnn2)C1` [Example 57, 7-[(2,3-dichlorophenyl)carbonyl]-3-(3-pyridazinyl)-5,6,7,8-tetrahydro[1,2,4]triazolo [4,3-a]pyrazine] and `O=C(c1ccc(F)cc1Cl)N1CCn2c(nnc2-c2cccnn2)C1` [Example 59, 7-[(2-chloro-4-fluorophenyl)carbonyl]-3-(3-pyridazinyl)-5,6,7,8-tetrahydro[1,2,]triazolo [4,3-a]pyrazine] cannot be ordered by IC50: under 100 nM for the first, under 501 nM for the second.

`Cc1cc(-c2nnc3n2CCN(C(=O)c2cccc(Cl)c2Cl)C3)no1` [Example 49, 7-[(2,3-dichlorophenyl)carbonyl]-3-(5-methyl-3-isoxazolyl)-5,6,7,8-tetrahydro[1,2,4]triazolo [4,3-a]pyrazine] and `Cc1ccc(-c2nnc3n2CCN(C(=O)c2cccc(Cl)c2Cl)C3)nc1` [Example 60, 7-[(2,3-dichlorophenyl)carbonyl]-3-(5-methyl-2-pyridinyl)-5,6,7,8-tetrahydro[1,2,4]triazolo [4,3-a]pyrazine] cannot be ordered by IC50: under 100 nM for the first, under 100 nM for the second.

`O=C(c1cccc(C(F)(F)F)c1Cl)N1CCn2c(nnc2-c2ccncn2)C1` [Example 12, 7-{[2-chloro-3-(trifluoromethyl)phenyl]carbonyl}-3-(4-pyrimidinyl)-5,6,7,8-tetrahydro[1,2,4]triazolo[4,3-a]pyrazine] and `O=C(c1cccc(C(F)(F)F)c1Cl)N1CCn2c(nnc2-c2ncccn2)C1` [Example 50, 7-{[2-chloro-3-(trifluoromethyl)phenyl]carbonyl}-3-(2-pyrimidinyl)-5,6,7,8-tetrahydro[1,2,4]triazolo [4,3-a]pyrazine] cannot be ordered by IC50: under 100 nM for the first, under 10 nM for the second.

`COc1cccc(-c2nnc3n2CCN(C(=O)c2ccc(F)cc2Cl)C3)c1` [Example 125, 7-[(2-chloro-4-fluorophenyl)carbonyl]-3-[3-(methyloxy)phenyl]-5,6,7,8-tetrahydro[1,2,4]triazolo[4,3-a]pyrazine] and `O=C(c1ccc(F)cc1Cl)N1CCn2c(nnc2-c2ccc(F)c(F)c2)C1` [Example 124, 7-[(2-chloro-4-fluorophenyl)carbonyl]-3-(3,4-difluorophenyl)-5,6,7,8-tetrahydro[1,2,4]triazolo[4,3-a]pyrazine] cannot be ordered by IC50: under 100 nM for the first, under 100 nM for the second.

`O=C(c1cccc(C(F)(F)F)c1Cl)N1CCn2c(nnc2N2CCCCC2)C1` [Example 23, 7-{[2-chloro-3-(trifluoromethyl)phenyl]carbonyl}-3-(1-piperidinyl)-5,6,7,8-tetrahydro[1,2,4]triazolo [4,3-a]pyrazine] and `O=C(c1ccc(Cl)cc1Cl)N1CCn2c(Br)nnc2C1` [Example 7, 3-bromo-7-[(2,4-dichlorophenyl)carbonyl]-5,6,7,8-tetrahydro[1,2,4]triazolo [4,3-a]pyrazine] cannot be ordered by IC50: under 100 nM for the first, under 501 nM for the second.

`O=C(c1c(Cl)cc(Cl)cc1Cl)N1CCn2c(Br)nnc2C1` [Example 8, 3-bromo-7-[(2,4,6-trichlorophenyl)carbonyl]-5,6,7,8-tetrahydro[1,2,4]triazolo [4,3-a]pyrazine] and `O=C(c1ccc(F)cc1Cl)N1CCn2c(nnc2-c2cnc(Cl)cn2)C1` [Example 141, 7-[(2-Chloro-4-fluorophenyl)carbonyl]-3-(5-chloro-2-pyrazinyl)-5,6,7,8-tetrahydro[1,2,4]triazolo[4,3-a]pyrazine] cannot be ordered by IC50: under 501 nM for the first, under 501 nM for the second.

`Cc1ncccc1-c1nnc2n1CCN(C(=O)c1cccc(Cl)c1Cl)C2` [Example 73, 7-[(2,3-dichlorophenyl)carbonyl]-3-(2-methyl-3-pyridinyl)-5,6,7,8-tetrahydro[1,2,4]triazolo [4,3-a]pyrazine] and `Cc1cccnc1-c1nnc2n1CCN(C(=O)c1ccc(F)cc1Cl)C2` [Example 32, 7-[(2-chloro-4-fluorophenyl)carbonyl]-3-(3-methyl-2-pyridinyl)-5,6,7,8-tetrahydro[1,2,4]triazolo[4,3-a]pyrazine] cannot be ordered by IC50: under 100 nM for the first, under 100 nM for the second.

`O=C(c1ccc(F)cc1Cl)N1CCn2c(nnc2-c2ncc(F)cc2F)C1` [Example 84, 7-[(2-chloro-4-fluorophenyl)carbonyl]-3-(3,5-difluoro-2-pyridinyl)-5,6,7,8-tetrahydro[1,2,4]triazolo [4,3-a]pyrazine] showed an IC50 of under 100 nM.
